Laboratory results as given in patent publication US12681018B2, “Photoactive fluorescent compounds and use thereof for labeling of proteins” (EIKON THERAPEUTICS, INC., priority 2021, dated 2026).
In brackets after ≈: the same amount, converted by molar mass. Read-outs that look alike come from different tables or passages of the source.

How the values were obtained:
[1] = tested on: histone H2B-HaloTag fusion; experiment: Halo-protein specificity (Specificity Factor), single-molecule imaging in U2OS cells; format: cell-based; conditions: ratio of slope (spots vs dye concentration, 1-200 nM, 45 minutes) relative to PA-JF549
Protocol: The following day the cells were incubated with PA-JF549 or Examples 1-4 at a range of concentrations between 200 nM and 1 nM for 45 minutes. […] Samples were imaged on a Nikon Ti2 microscope with fiber-optic coupled illumination source. […] Images were collected every 10 msec for 5 seconds per field of view and pulses of ascending intensity 405 nm light (between 0 and 12 mW at the coverslip) were used to photoactivate dye molecules.
For each dye compound, a linear regression was used to determine the relationship between the concentration of dye compound and the number of fluorescence spots detected on the microscope, where in WT cells the ideal dye would have no correlation between compound concentration and number of slots measured. The Specificity Factor was calculated as the ratio of the slope of the compound in question relative to the slope calculated for PA-JF549 and is shown in Table 3 below.

[2] = Kinetic solubility in PBS at 7.4; format: physicochemical; conditions: PBS buffer, aqueous buffer, kinetic from dmso stock, pH 7.4, 500 μM final concentration, 1.5 hours at room temperature, average of three runs, read-out: Ksol
Protocol: 190 μL of buffer solution (PBS, pH 7.4) was added to wells on a 96-well Millipore Solubility filter plate. Then 10 μL of test compound in DMSO (10 mM) were added to give final concentration of 500 μM.
The filter plate was shaken for 1.5 hours at room temperature in the dark and samples were filtered via a vacuum system into a fresh 96-well plate. Samples were diluted to 500 μM (highest concentration) in DMSO and further diluted (1:10) to provide three-point calibration curve. Absorbance was measured using HPLC/UV analysis at 220 nm, 254 nm, and 280 nm.

[3] = target: T1, Estrogen Receptor-HaloTag (ER-Halo) fusion (Rhodococcus rhodochrous, UniProt P0A3G2, A155T/A167V/A172T/A224E/C128F/C176G/D78G/E160K/E257K/H272N/K175M/K195N/L47V/L88M/N227D/P291S/S58T/T264A/Y273L/Y87F); format: cell-based; conditions: tracks in WT U2OS cells, ratio with PA-JF549 in the numerator, 100 nM, 1 hr
T1 construct: expressed in transfected cells; host or cells: U2OS
T1 sequence (P03372 whole entry, the tested form may be a part): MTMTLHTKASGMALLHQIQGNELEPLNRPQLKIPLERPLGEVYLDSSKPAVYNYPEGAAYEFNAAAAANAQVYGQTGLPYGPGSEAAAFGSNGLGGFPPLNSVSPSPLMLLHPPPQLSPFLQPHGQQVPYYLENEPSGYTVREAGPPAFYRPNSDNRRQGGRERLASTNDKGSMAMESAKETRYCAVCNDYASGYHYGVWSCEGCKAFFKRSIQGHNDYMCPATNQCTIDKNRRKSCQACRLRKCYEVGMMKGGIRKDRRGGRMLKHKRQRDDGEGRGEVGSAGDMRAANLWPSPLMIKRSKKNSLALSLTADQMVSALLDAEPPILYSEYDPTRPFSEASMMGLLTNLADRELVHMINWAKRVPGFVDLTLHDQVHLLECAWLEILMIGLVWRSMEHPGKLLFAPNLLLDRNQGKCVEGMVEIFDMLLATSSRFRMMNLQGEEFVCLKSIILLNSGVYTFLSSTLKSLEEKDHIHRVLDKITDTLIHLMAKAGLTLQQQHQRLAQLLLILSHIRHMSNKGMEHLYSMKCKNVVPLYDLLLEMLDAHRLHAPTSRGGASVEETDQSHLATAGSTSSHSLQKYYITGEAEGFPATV
T1 sequence (P0A3G2 other isoform, or with tags, fused parts or gaps with the stated changes): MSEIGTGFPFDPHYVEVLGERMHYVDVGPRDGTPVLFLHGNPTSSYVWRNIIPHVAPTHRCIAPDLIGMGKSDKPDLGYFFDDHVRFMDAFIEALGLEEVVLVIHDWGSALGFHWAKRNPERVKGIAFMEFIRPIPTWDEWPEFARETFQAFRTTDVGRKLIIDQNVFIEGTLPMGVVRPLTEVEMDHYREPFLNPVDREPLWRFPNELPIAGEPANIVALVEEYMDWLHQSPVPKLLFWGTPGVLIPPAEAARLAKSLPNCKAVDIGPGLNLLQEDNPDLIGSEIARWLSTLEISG
Protocol: Using the methods described in Tables 4a and 4b above, labelling specificity of the compound of Examples 1-24 was measured and compared to PA-JF549. U2OS cells wild type or expressing ER-HaloTag fusion were incubated with PA-JF549 or Examples 1-24 for 1 hr. […] Labeling specificity, as measured by the fold reduction in nonspecific labeling of WT cells, was calculated by number of tracks measured in WT cells for Examples 1-24 compared to the number of tracks in WT cells for PA-JF549, expressed as the ratio with PA-JF549 in the numerator.

Compound	Specificity Factor [1]	solubility kinetic at 1.5 h [2] [µM]	Fold reduction in nonspecific labeling ([3]; Table 4a)	Fold reduction in nonspecific labeling ([3]; Table 4b)
COC(=O)C1CN(c2ccc3c(c2)Oc2cc(N4CC(C(=O)OC)C4)ccc2C32C(=[N+]=[N-])C(=O)c3ccc(C(=O)NCCOCCOCCCCCCCl)cc32)C1 [Example 1, dimethyl 1,1′-(6-((2-(2-((6-chlorohexyl)oxy)ethoxy)ethyl)carbamoyl)-2-diazo-3-oxo-2,3-dihydrospiro[indene-1,9′-xanthene]-3′,6′-diyl)bis(azetidine-3-carboxylate)]	2.66	58.4 (≈ 46.7 µg/mL)	>10	>10
[N-]=[N+]=C1C(=O)c2ccc(C(=O)NCCOCCOCCCCCCCl)cc2C12c1ccc(N3CC(C(=O)O)C3)cc1Oc1cc(N3CC(C(=O)O)C3)ccc12 [Example 2, 1,1′-(6-((2-(2-((6-chlorohexyl)oxy)ethoxy)ethyl)carbamoyl)-2-diazo-3-oxo-2,3-dihydrospiro[indene-1,9′-xanthene]-3′,6′-diyl)bis(azetidine-3-carboxylic acid)]	<1	481 (≈ 371 µg/mL)	>10	>10
COC[C@H]1CCN1c1ccc2c(c1)Oc1cc(N3CC[C@@H]3COC)ccc1C21C(=[N+]=[N-])C(=O)c2ccc(C(=O)NCCOCCOCCCCCCCl)cc21 [Example 3, N-(2-(2-((6-chlorohexyl)oxy)ethoxy)ethyl)-2-diazo-3′,6′-bis((R)-2-(methoxymethyl)azetidin-1-yl)-3-oxo-2,3-dihydrospiro[indene-1,9′-xanthene]-6-carboxamide]	2.07	39.5 (≈ 30.5 µg/mL)	1-5	1-5
CN(C)C(=O)C1CN(c2ccc3c(c2)Oc2cc(N4CC(C(=O)N(C)C)C4)ccc2C32C(=[N+]=[N-])C(=O)c3ccc(C(=O)NCCOCCOCCCCCCCl)cc32)C1 [Example 4, 1,1′-(6-((2-(2-((6-chlorohexyl)oxy)ethoxy)ethyl)carbamoyl)-2-diazo-3-oxo-2,3-dihydrospiro[indene-1,9′-xanthene]-3′,6′-diyl)bis(N,N-dimethylazetidine-3-carboxamide)]	23.8	3.69 (≈ 3.05 µg/mL)	>10	>10
